Measured values taken from article PMC11678869, “Functional Role of Odorant-Binding Proteins in Response to Sex Pheromone Component Z8-14:Ac in Grapholita molesta (Busck)” (Insects, 2024).

System: PFM males
Assay: Field trapping with delta traps, peach orchard
Assay type: in vivo, Grapholita funebrana
Procedure: To determine the inhibitory effects on OFM male adults and the impact on the trapping effects of PFM male adults, varying amounts of Z8-14:Ac (0, 5, 10, 25, 50, 75, 100, 125, 150 μg) or Z10-14:Ac (0, 25, 50, 100, 150, 250, 350, 450, and 550 μg) were added to rubber septa loaded with a constant dosage of the main pheromone (500 μg of Z8-12:Ac and 20 μg of E8-12:Ac) of the PFM. Trapping experiments of Z8-14:Ac were carried out in peach and pear orchards in Yan’an and Xinjiang (China), respectively. Trapping tests of Z10-14:Ac were performed in pear orchards in Xinjiang (China). Each orchard had nine plots, with three plots in one field. Each plot consisted of a linear arrangement of traps loaded with a constant dosage of the main pheromones and different percentages of the secondary pheromone Z8-14:Ac or Z10-14:Ac of the PFM. Plots in the same field were placed 30 m apart, and fields were ≥1 km apart. The traps were hung 1.4 m from the ground on a suspension bracket between two rows of peach or pear trees from 10 June to 25 July 2021 in Xinjiang and from 15 June to 30 July 2021 in Yan’an. The positions of the traps within the plot were randomly arranged. Every 5 days, counts were taken, and the traps were rotated to the adjacent position to avoid any potential position effects. The septa loaded with sex pheromone components were replaced with new ones after every 15 days of suspension. The data were analyzed using a one-way ANOVA, and the differences in the average trapping of OFM and PFM males using sex attractants containing different amounts of Z8-14:Ac or Z10-14:Ac were further analyzed using Tukey’s HSD test, both of which were performed using SPSS 23.0.

CCCCC/C=C\CCCCCCCOC(C)=O [Z8-14:Ac, (Z)-8-tetradecenyl acetate]
Total PFM Males/Trap (Z8-12:Ac/E8-12:Ac/Z8-14:Ac 500/20/5 μg (100:4:1)): 387.73 ± 18.31 a Males/Trap | Total PFM Males/Trap (Z8-12:Ac/E8-12:Ac/Z8-14:Ac 500/20/10 μg (100:4:2)): 287.22 ± 7.96 a Males/Trap | Total PFM Males/Trap (Z8-12:Ac/E8-12:Ac/Z8-14:Ac 500/20/25 μg (100:4:5)): 314.53 ± 26.14 a Males/Trap | Total PFM Males/Trap (Z8-12:Ac/E8-12:Ac/Z8-14:Ac 500/20/50 μg (100:4:10)): 331.58 ± 17.46 a Males/Trap | Total PFM Males/Trap (Z8-12:Ac/E8-12:Ac/Z8-14:Ac 500/20/75 μg (100:4:15)): 297.81 ± 4.75 a Males/Trap | Total PFM Males/Trap (Z8-12:Ac/E8-12:Ac/Z8-14:Ac 500/20/100 μg (100:4:20)): 285.62 ± 6.55 a Males/Trap | Total PFM Males/Trap (Z8-12:Ac/E8-12:Ac/Z8-14:Ac 500/20/125 μg (100:4:25)): 352.89 ± 32.42 a Males/Trap | Total PFM Males/Trap (Z8-12:Ac/E8-12:Ac/Z8-14:Ac 500/20/150 μg (100:4:30)): 348.30 ± 22.77 a Males/Trap | effect on the number of PFM males (adding 1–30% of Z8-14:Ac to the PFM sex attractants): neither significantly increased nor inhibited
